Source: patent US10160747B2, “Compounds and methods for kinase modulation, and indications therefor” (Plexxikon Inc., priority 2016, dated 2018)

Columns and labels:
[1] = test system: MOLM-14 F691L (endogenous FLT3 ITD and transfected FLT3 F691L); assay: MOLM-14 F691L cell proliferation assay (CellTiter-Glo); format: cell-based; settings: Homo sapiens, MOLM-14, 72 h; 3 d growth, GMean
Description: (§1) The FLT3 inhibitors may be assessed using the MOLM-14, Acute Myeloid Leukemia cell line that endogenously expresses FLT3 ITD or derivatives of the human FLT3 AML cell line which acquired the D835Y (activation loop) of F691L (gatekeeper) mutation after selection in escalating doses of the FLT3 Inhibitor AC220. FLT3 inhibitors may also be assessed using cells that are engineered to express mutant FLT3. For engineered cells, murine Ba/F3 cells were transfected with full-length FLT3 ITD/D835Y mutations. The parental BA/F3 cells are dependent upon Interleukin-3 (IL-3) for survival, and introduction of the FLT3 constructs rendered these cells dependent upon FLT3 kinase activity when cultured in the absences of IL-3. Engineered BA/F3 cell growth assays can be performed in either the […] of IL-3, to assess the compound inhibition of FLT3 or to detect the presence of off-target activity, respectively. Inhibitors of FLT3 kinase activity reduce or eliminate the FLT3 oncogenic signaling, resulting in reduced cell proliferation. This inhibition is measured as a function of compound concentration to assess IC50 values.
(§2) Cell lines used in proliferation assays are as follows in Table 2:
(§3) Cells were seeded at 1×10^4 cells per well of a 96 well cell culture plate in 50 μl of cell culture medium. Compounds were dissolved in DMSO, typically at a concentration of 0.5 mM and were serially diluted 1:3 for a total of eight points and added to the cells to final concentrations of […], 0.0041, 0.0014 and 0.00046 μM in 100 μl cell culture medium (final concentration 0.2% DMSO). […] The cells were incubated at 37° C., 5% CO2 for three days. CellTiter-Glo Buffer (Promega Cell Viability Assay catalog #G7573) and substrate were equilibrated to room temperature, and enzyme/substrate Recombinant Firefly Luciferase/Beetle Luciferin was reconstituted. The cell plates were equilibrated to room temperature for 30 minutes, then lysed by addition of an equivalent volume of the Celltiter-Glo Reagent. The plate was mixed for 10 minutes on a plate shaker to lyse the cells. The plates were read on a Tecan M1000 using Luminescence protocol modified to read 0.1 s per well. The luminescence reading assesses the ATP content, which correlates directly with cell number such that the reading as a function of compound concentration was used to determine the IC50 value.

BA/F3-FLT3-ITD + D835Y = biological target: T1, BA/F3-FLT3-ITD + D835Y (Homo sapiens, UniProt P36888, D835Y, cells depend on it, form not given); assay: Engineered BA/F3 cell growth assay, FLT3 ITD/D835Y; format: cell-based, murine; settings: 3 d growth
T1 sequence (P36888 with tags, fused parts or gaps INS600HVDFREYEYD/D835Y): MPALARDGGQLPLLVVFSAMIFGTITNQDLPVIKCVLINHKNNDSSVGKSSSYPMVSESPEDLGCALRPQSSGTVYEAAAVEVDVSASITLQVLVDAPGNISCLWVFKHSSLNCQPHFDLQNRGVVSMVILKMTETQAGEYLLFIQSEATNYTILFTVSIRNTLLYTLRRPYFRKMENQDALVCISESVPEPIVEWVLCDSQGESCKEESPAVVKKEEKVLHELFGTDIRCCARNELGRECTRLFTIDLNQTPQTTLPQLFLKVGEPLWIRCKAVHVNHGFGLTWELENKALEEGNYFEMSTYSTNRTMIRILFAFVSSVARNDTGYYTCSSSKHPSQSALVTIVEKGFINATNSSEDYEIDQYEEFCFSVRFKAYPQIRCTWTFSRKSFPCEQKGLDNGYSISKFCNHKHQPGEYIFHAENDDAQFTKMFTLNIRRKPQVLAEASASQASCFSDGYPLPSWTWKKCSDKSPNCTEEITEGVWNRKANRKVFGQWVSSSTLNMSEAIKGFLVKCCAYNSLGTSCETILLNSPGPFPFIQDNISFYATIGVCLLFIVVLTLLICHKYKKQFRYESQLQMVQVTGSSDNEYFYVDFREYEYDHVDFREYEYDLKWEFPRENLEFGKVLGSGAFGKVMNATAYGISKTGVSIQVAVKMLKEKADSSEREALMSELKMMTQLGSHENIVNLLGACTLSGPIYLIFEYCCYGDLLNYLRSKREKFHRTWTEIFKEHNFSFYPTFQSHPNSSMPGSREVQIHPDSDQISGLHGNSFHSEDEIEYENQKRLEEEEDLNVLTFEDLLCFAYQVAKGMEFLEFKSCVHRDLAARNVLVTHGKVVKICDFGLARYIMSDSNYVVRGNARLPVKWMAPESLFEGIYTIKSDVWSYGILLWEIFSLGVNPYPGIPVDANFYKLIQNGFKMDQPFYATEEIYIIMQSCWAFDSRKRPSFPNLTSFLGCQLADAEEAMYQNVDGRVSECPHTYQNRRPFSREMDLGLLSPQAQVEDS
Description: as §1, §2, §3
The BaF3 assays as developed used to generate the data in Tables 7 and 8 are identical and differ only in minor details in regards to vector design, not biological function. Both introduce the FLT3 gene with MV4-11 based ITD duplications and resistance mutations from an exogenous promoter (MSCV and CMV respectively) in the exact same cell line.
As a result of the expressed FLT3 protein, the IL3 factor dependent BaF3 cell clones become IL3-factor independent.
The compounds in Tables 7 and 8 were tested in an identical fashion by incubating such clones in with increasing concentrations. Inhibition of the FLT3 activity by an inhibitor results in factor dependency, which in the absence of IL3 results in cell death in the three day growth assays.

[2] = test system: MOLM-14 D835Y (endogenous FLT3 ITD and transfected FLT3 D835Y); assay: MOLM-14 D835Y cell proliferation assay (CellTiter-Glo); format: cell-based; settings: Homo sapiens, MOLM-14, 72 h; 3 d growth, GMean
Description: as §1, §2, §3

Cc1noc2ncc(NC(=O)Cc3ccc(-c4cnc(Nc5cnn(C)c5)nc4)cc3)cc12 [Compound P-0130, N-(3-methylisoxazolo[5,4-b]pyridin-5-yl)-2-[4-[2-[(1-methylpyrazol-4-yl)amino]pyrimidin-5-yl]phenyl]acetamide]
0.0001 to 10 µM: IC50 [1] | GI50 (BA/F3-FLT3-ITD + D835Y) | IC50 [2]

Cn1cc(Nc2ncc(-c3ccc(CC(=O)Nc4cc(C(C)(F)F)ccn4)cc3)cn2)cn1 [Compound P-0147, N-[4-(1,1-difluoroethyl)-2-pyridyl]-2-[4-[2-[(1-methylpyrazol-4-yl)amino]pyrimidin-5-yl]phenyl]acetamide]
0.0001 to 10 µM: IC50 [1] | GI50 (BA/F3-FLT3-ITD + D835Y) | IC50 [2]

Cn1cnc(Nc2ncc(-c3ccc(CC(=O)Nc4cnc(Cl)c(C(F)(F)F)c4)cc3)cn2)c1 [Compound P-0148, N-[6-chloro-5-(trifluoromethyl)-3-pyridyl]-2-[4-[2-[(1-methylimidazol-4-yl)amino]pyrimidin-5-yl]phenyl]acetamide]
0.0001 to 10 µM: IC50 [1] | GI50 (BA/F3-FLT3-ITD + D835Y) | IC50 [2]

COc1cc(-c2cc3cc(-c4ccc(CC(=O)Nc5ccnc(C(F)(F)F)c5)nc4)cnc3[nH]2)ccn1 [Compound P-0187, 2-[5-[2-(2-methoxy-4-pyridyl)-1H-pyrrolo[2,3-b]pyridin-5-yl]-2-pyridyl]-N-[2-(trifluoromethyl)-4-pyridyl]acetamide]
0.0001 to 10 µM: IC50 [1] | GI50 (BA/F3-FLT3-ITD + D835Y) | IC50 [2]

COc1cc(-c2cc3cc(-c4cc(F)c(CC(=O)Nc5cc(C(F)(F)F)ccn5)cc4F)cnc3[nH]2)ccn1 [Compound P-0189, 2-[2,5-difluoro-4-[2-(2-methoxy-4-pyridyl)-1H-pyrrolo[2,3-b]pyridin-5-yl]phenyl]-N-[4-(trifluoromethyl)-2-pyridyl]acetamide]
0.0001 to 10 µM: IC50 [1] | GI50 (BA/F3-FLT3-ITD + D835Y) | IC50 [2]

O=C(Cc1cc(F)c(-c2cnc3[nH]c(-c4ccnc(N5CCOCC5)c4)cc3c2)cc1F)Nc1cc(C(F)(F)F)ccn1 [Compound P-0190, 2-[2,5-difluoro-4-[2-(2-morpholino-4-pyridyl)-1H-pyrrolo[2,3-b]pyridin-5-yl]phenyl]-N-[4-(trifluoromethyl)-2-pyridyl]acetamide]
0.0001 to 10 µM: IC50 [1] | GI50 (BA/F3-FLT3-ITD + D835Y) | IC50 [2]

COc1ncc(NC(=O)Cc2ccc(-c3cnc4[nH]c(-c5ccc(N6CCOCC6)nc5)cc4c3)c(F)c2)cc1C(F)(F)F [Compound P-0193, 2-[3-fluoro-4-[2-(6-morpholino-3-pyridyl)-1H-pyrrolo[2,3-b]pyridin-5-yl]phenyl]-N-[6-methoxy-5-(trifluoromethyl)-3-pyridyl]acetamide]
0.0001 to 10 µM: IC50 [1] | GI50 (BA/F3-FLT3-ITD + D835Y) | IC50 [2]

CCc1cncc(NC(=O)Cc2ccc(-c3cnc(Nc4cnn(C(F)F)c4)nc3)cc2)c1 [Compound P-0223, 2-[4-[2-[[1-(difluoromethyl)pyrazol-4-yl]amino]pyrimidin-5-yl]phenyl]-N-(5-ethyl-3-pyridyl)acetamide]
0.0001 to 10 µM: IC50 [1] | GI50 (BA/F3-FLT3-ITD + D835Y) | IC50 [2]

O=C(Cc1ccc(-c2cnc(Nc3cnn(C(F)F)c3)nc2)cc1)Nc1cncc(C2CC2)c1 [Compound P-0224, N-(5-cyclopropyl-3-pyridyl)-2-[4-[2-[[1-(difluoromethyl)pyrazol-4-yl]amino]pyrimidin-5-yl]phenyl]acetamide]
0.0001 to 10 µM: IC50 [1] | GI50 (BA/F3-FLT3-ITD + D835Y) | IC50 [2]

Cc1ncc(NC(=O)Cc2ccc(-c3cnc(Nc4cn[nH]c4)nc3)c(F)c2)cc1C(F)(F)F [Compound P-0225, 2-[3-fluoro-4-[2-(1H-pyrazol-4-ylamino)pyrimidin-5-yl]phenyl]-N-[6-methyl-5-(trifluoromethyl)-3-pyridyl]acetamide]
0.0001 to 10 µM: IC50 [1] | GI50 (BA/F3-FLT3-ITD + D835Y) | IC50 [2]

COc1ncc(NC(=O)Cc2cc(F)c(-c3cnc(Nc4cn[nH]c4)nc3)cc2F)cc1C(F)(F)F [Compound P-0226, 2-[2,5-difluoro-4-[2-(1H-pyrazol-4-ylamino)pyrimidin-5-yl]phenyl]-N-[6-methoxy-5-(trifluoromethyl)-3-pyridyl]acetamide]
0.0001 to 10 µM: IC50 [1] | GI50 (BA/F3-FLT3-ITD + D835Y) | IC50 [2]

COCCn1cc(Nc2ncc(-c3ccc(CC(=O)Nc4cnc(C)c(C(F)(F)F)c4)c(F)c3)cn2)cn1 [Compound P-0264, 2-[2-fluoro-4-[2-[[1-(2-methoxyethyl)pyrazol-4-yl]amino]pyrimidin-5-yl]phenyl]-N-[6-methyl-5-(trifluoromethyl)-3-pyridyl]acetamide]
0.0001 to 10 µM: IC50 [1] | GI50 (BA/F3-FLT3-ITD + D835Y) | IC50 [2]
